Results as given in patent publication US20120136011A1, “COMPOUNDS AND METHODS FOR SKIN REPAIR” (ALLERGAN, INC., priority 2010, published 2012).

Legend:
Sprague-Dawley rats [1] = experiment: Incisional skin wound model, 14 day pilot study, topical treatment; type: in vivo
Description: (§1) Incisional Skin Wound Model and Assessment. Sprague-Dawley rats at 180-200 gram were anesthetized with isoflourane. After shaving, a 2-cm long incision was made, reaching the deep fascia on the back skin of rats under sterile conditions. The wounds were immediately closed with 4-0 sutures. A 14 day pilot study was carried out. The animals were topically treated with vehicle or Compound 1 at 0.004% twice daily. The vehicle contained ethanol 30%, propylene glycol 12%, dipropylene glycol 5%, benzyl alcohol 5%, glycerol 3% and normal saline 45%. The wound was photographed daily; biopsy was performed at 2, 3, 7 and 14 days post-surgery for histopathology and molecular biology analysis.
(§2) The wound tissue was biopsied for histopathology on day 3, 14 and 70. To observe the skin wound, paraffin-embedded wound sections were made. Regular H&E staining was carried out in comparison with Masson trichrome and/or Picosirus red to visualize the collagen fibers. To monitor myofibroblasts in skin wound, the sections were immunohistochemically stained to identify alpha-smooth muscle actin. To assess wound appearance, all the scar photos were mixed together by the end of each study. The scar severity was scored on a scale of 0 to 10, with 0 being invisible, 1 the minimal and 10 the worst. Each scar was divided into 4 regions, separated by suture sites; each quarter was scored independently; the mean of the 4 part scores was recorded as the gross score of each wound.

Sprague-Dawley rats [2] = experiment: Incisional skin wound study comparing Compound 1 and TGF-β3 (intradermal injection, then topical); type: in vivo; conditions: for number of neutrophils counted in three sections of H&E stained tissues: 3 days post-surgery, n=5, vehicle 60.6±30, not statistically significant; for macroscopic surface appearance of wound sites / abnormal regions (dense, red, fine parallel fibers) on Picrosirius red stained sections: 70 days post-surgery; for abnormal regions (dense, red, fine parallel fibers) on Picrosirius red stained sections: versus vehicle; for widths of the abnormal structured dermis regions, Masson trichrome / gap width in-between the normal fibrils, Picrosirius red / collagen fibril type at wound sites, Picrosirius red under polarized light: day 14; for widths of the abnormal structured dermis regions, Masson trichrome / size of residual scar regions, Masson trichrome: versus vehicle treated group, p<0.01-0.05; for gap width in-between the normal fibrils, Picrosirius red: versus vehicle-treated group, p<0.05; for collagen fibril type at wound sites, Picrosirius red under polarized light: yellow large bundles versus green type III collagen; for size of residual scar regions, Masson trichrome: day 70
Description: as §1
A similar skin wound study was also performed comparing the effects of Compound 1 and TGF-β3. In this study, intradermal injections of Compound 1 at 0.004%, TGF-β3 at 100 ng/200 μl or vehicle were given right before closing the wounds. Afterward, TGF-β3 was injected two more times, on day 1 and 2, and Compound 1 and vehicle were topically applied twice a day for the duration of the study. The vehicle was PBS with 0.1% BSA and 4 mM HCl in a total volume of 200 μl for injection. Skin wounds were imaged on day 3, 7, 14, and 70.
as §2

[3] = test system: human fetal skin fibroblasts (CRL-7129); experiment: Collagen type I production in cultured fetal skin fibroblasts (Western blot); type: cell-based
[4] = test system: human adult skin fibroblasts (CRL-7346); experiment: Collagen type I production in cultured adult skin fibroblasts (Western blot); type: cell-based
[5] = day 14, Masson Trichrome, versus vehicle
[6] = vehicle 100%, 48 hours treatment

| Compound | epidermal layer thickness and structure at wound site (Sprague-Dawley rats [1]; 7 days post-skin incision, 0.004% topical twice daily) | epidermal thickness of vehicle-treated skin relative to Compound 1 treated epidermis (Sprague-Dawley rats [1]; 7 days post-skin incision, vehicle had epidermal hyperplasia) [times] | gross skin scar appearance (Sprague-Dawley rats [1]; 14 days post-surgery, versus vehicle-treated animals) | overall size of epidermal defects, vehicle-treated versus Compound 1 treated wounds (Sprague-Dawley rats [1]; day 3 post-surgery, 0.004% topical twice daily) | skin wound samples showing closed epidermis filled with keratinocytes (Sprague-Dawley rats [1]; day 3 post-surgery, 0.004% topical twice daily, vehicle 33%) [%] | number of myofibroblasts (α-SMA-positive cells) (Sprague-Dawley rats [1]; day 3 samples, vehicle control 38±6.15/3 sections) | scar width (abnormal fiber belt) in the middle and bottom parts of scars (Sprague-Dawley rats [1]; [5]) | scar width at the superficial region (Sprague-Dawley rats [1]; [5]) | neutrophil (polymorphonuclear cell) infiltration at wound sites (Sprague-Dawley rats [1]; days 2 and 3 post-surgery, versus vehicle) | number of neutrophils counted in three sections of H&E stained tissues (Sprague-Dawley rats [2]) | macroscopic surface appearance of wound sites (Sprague-Dawley rats [2]) | abnormal regions (dense, red, fine parallel fibers) on Picrosirius red stained sections (Sprague-Dawley rats [2]) | widths of the abnormal structured dermis regions, Masson trichrome (Sprague-Dawley rats [2]) | gap width in-between the normal fibrils, Picrosirius red (Sprague-Dawley rats [2]) | collagen fibril type at wound sites, Picrosirius red under polarized light (Sprague-Dawley rats [2]) | size of residual scar regions, Masson trichrome (Sprague-Dawley rats [2]) | collagen type-1 production (in words) [3] | collagen type-1 production relative to vehicle [3, 6] [%] | collagen type-1 production (in words) [4] | collagen type-1 production relative to vehicle [4, 6] [%] |
| --- | --- | --- | --- | --- | --- | --- | --- | --- | --- | --- | --- | --- | --- | --- | --- | --- | --- | --- | --- | --- |
| CC1(C)C(=O)[C@H](C/C=C\CCCC(=O)O)[C@@H](/C=C/[C@H](O)CCc2sc3ccccc3c2Cl)[C@@H]1O [Compound 1] | thickness close to the nearby normal epidermis | 3 | smaller and softer skin scar | two times larger for vehicle-treated wounds | 80 | 25.8±7.45 /3 sections | significantly reduced | only a tendency to decrease | significantly reduced | 31.4±8 | wound sites were not even detectable | largely absent | significantly smaller | significantly narrower | large yellow-stained collagen bundles almost crossing over the entire wound sites | remarkably smaller | upregulated | 200 | upregulated | 128 |
| TGF-β3: a leading treatment for wounds, reportedly reducing skin scar in both animals and human |  |  |  |  |  |  |  |  |  | 53.8±17 | still showed traces of wounds | largely absent | significantly smaller | significantly narrower | some green fibers at the bottom of the wounds | remarkably smaller |  |  |  |  |
